“Also recorded” adds a separate entry of the source.
What was measured:
[1] = test system: Pol-II; experiment: CUT&Tag of Pol-II occupancy; assay type: cell-based, human; details: MB135-iDUX4-CTD cells, IFNG ± doxycycline
Protocol: CUT&Tag was performed as previously described (Kaya-Okur et al., 2019) with the following modifications: MB135-iDUX4-CTD myoblasts were plated and allowed to grow to 70-80% confluence. Cells were left untreated, treated with 200 ng/ml IFNG for 16 hr, or pre-treated with 1 μg/mL doxycycline for 4 hr then had IFNG added directly to cell media for an additional 16 hr. Fresh cells were harvested and washed in PBS, crosslinked with 0.1% formaldehyde for 90 seconds, then counted and 1.25e6 cells were aliquoted per reaction tube. Drosophila S2 cells were spiked-in at a genomic ratio of 1:10. Nuclei were prepared from cells in Buffer NE1 (20 mM HEPES-KOH PH7.9, 10 mM KCl, 0.1% Triton X-100, 20% glycerol, 0.5 mM spermidine, Pierce Protease Inhibitors EDTA-free [PIA32955]) on ice for 10 min and then bound to concanavalin A-coated beads for 10 min. […]
CUT&Tag data were aligned to the GRCh38 patch 13 human genome e following the Benchtop CUT&Tag v3 protocol (Kaya-Okur et al., 2019). Subsequent to alignment we calculated 1× genome coverage normalization with read centering and read extension using deepTools' bamCoverage (Ramírez, 2016) then mapped the resulting coverage tracks to regions of interest using bedtools' map function (Aaron R. Quinlan, 2010). […]

[2] = target: T1, STAT1 (Homo sapiens, UniProt P42224); experiment: Immunofluorescence of STAT1 distribution; assay type: cell-based; details: MB135 cells, IFNG ± doxycycline
T1 construct: co-localization of endogenous STAT1 and pSTAT1 701 with the iDUX4-CTD; endogenous in cells; host or cells: MB135 human myoblasts carrying doxycycline-inducible DUX4 / DUX4-CTD / DUXB / Dux transgenes, with or without IFNG
T1 sequence (P42224 1-750): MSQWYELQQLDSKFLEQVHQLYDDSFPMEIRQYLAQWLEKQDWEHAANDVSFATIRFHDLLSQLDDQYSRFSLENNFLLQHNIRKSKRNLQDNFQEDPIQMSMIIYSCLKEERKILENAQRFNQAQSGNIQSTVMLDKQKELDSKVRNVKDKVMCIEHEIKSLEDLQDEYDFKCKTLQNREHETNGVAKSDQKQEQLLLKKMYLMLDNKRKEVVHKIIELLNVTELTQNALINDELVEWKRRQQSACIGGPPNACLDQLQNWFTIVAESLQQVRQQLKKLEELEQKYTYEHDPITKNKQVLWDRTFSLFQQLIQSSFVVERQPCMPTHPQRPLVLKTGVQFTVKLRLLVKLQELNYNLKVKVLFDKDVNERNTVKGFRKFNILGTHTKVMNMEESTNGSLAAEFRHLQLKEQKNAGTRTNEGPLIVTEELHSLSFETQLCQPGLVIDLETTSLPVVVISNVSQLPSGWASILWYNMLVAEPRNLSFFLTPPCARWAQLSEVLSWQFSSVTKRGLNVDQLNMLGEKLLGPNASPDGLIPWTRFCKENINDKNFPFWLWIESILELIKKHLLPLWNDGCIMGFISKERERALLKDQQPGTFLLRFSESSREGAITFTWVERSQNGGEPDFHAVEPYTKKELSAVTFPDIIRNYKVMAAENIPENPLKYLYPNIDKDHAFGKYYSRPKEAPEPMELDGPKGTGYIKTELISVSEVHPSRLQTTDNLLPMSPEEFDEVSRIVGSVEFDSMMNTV
Protocol: Cells were fixed for 10 minutes with 2% paraformaldehyde (Thermo Scientific) for DUX4/STAT1 and 4% paraformaldehyde for DUX4/IDO1 then permeabilized for 10 minutes with 0.5% Triton X-100 (Sigma), both at room temperature with gentle shaking. Cells were then blocked for 2 hours with PBS/0.3M glycine/3% BSA at room temperature with gentle shaking. Primary antibodies were incubated at 4° C. overnight: mouse anti-FLAG M2 1:500 (Sigma #F1804), rabbit anti-STAT1 mAb 1:750 (Abcam #ab109320), rabbit anti-IDO1 (D5J4E) 1:100 (Cell Signaling Tech 86630S), and mouse anti-DUX4 (P2G4) 1:250 (Geng et al., 2011). Cells were washed three times with 1×PBS containing 3% BSA, then secondary antibodies were incubated for 1 hr at room temperature: FITC-conjugated donkey anti-rabbit (Jackson immunoResearch) or TRITC-conjugated donkey anti-mouse (Jackson ImmunoResearch). Cells were washed once with 1×PBS containing 3% BSA then stained with DAPI (Sigma) for 10′ at room temperature and then visualized.

Substance	Pol-II recruitment to ISGs [1]	STAT1 nuclear distribution [2]
longCTD: 3×FLAG tag and nls in frame with carboxyterminal 271 amino acids of DUX4 (aa154-424), SEQ ID NOS: 8-9	blocked Pol-II recruitment to ISGs without affecting occupancy at other genes; also recorded: blocks Pol-II recruitment	–
DUX4: human DUX4 protein SEQ ID NO:3 expressed from doxycycline inducible codon altered transgene SEQ ID NO:2	–	no longer evenly distributed in the nucleus and shows overall decreased abundance

From patent US20250339531A1, “DUX4 POLYPEPTIDES AND NUCLEIC ACIDS FOR TREATING INFLAMMATORY AND AUTOIMMUNE CONDITIONS” (Fred Hutchinson Cancer Center, priority 2021, published 2025)
